Test results as given in a melting point compilation (Tetko et al.; mined from patent text by program, amines drawn as free bases though some values may be those of a salt).

Compound | melting point [°C]
COc1ccc(Cl)cc1-c1c(CCO)c(=O)[nH]c2ccc(C(F)(F)F)cc12 | 216 to 217
O=C(O)Cc1cc2c(cc1Cc1ccccc1)OCO2 | 116 to 117
O=C(CCCCCNC(=O)OCc1ccccc1)N[C@@H](Cc1ccccc1)C(=O)O | 119 to 120
NCCCN1c2ccccc2N=C(c2ccccc2F)c2ccccc21 | 144 to 145
Cc1c(NC(=O)CC(C)(C)C)c(C)c2c(c1-c1cccs1)OCC2c1ccc(C(C)C)cc1 (stereo not drawn) | 155 to 156
O=C(O)Cc1cccc(OCc2ccccc2Cl)c1OCc1ccccc1Cl | 102 to 104
CCCC1=C(C#N)C(c2ccccc2Cl)c2c(n[nH]c2-c2ccco2)N1 (stereo not drawn) | 253
N#CCc1ccc2oc([N+](=O)[O-])c(-c3ccccc3)c2c1 | 166 to 168
COc1ccccc1C1=NNNN1C(c1ccccc1)(c1ccccc1)c1ccccc1 | 165 to 170
COc1cc2ncc(C#N)c(Nc3ccc(C)c(Br)c3)c2cc1OC | 292 to 294
O=C(O)CCOCc1ccccc1 | 35.2
COc1cc(-c2nc(-c3ccc(N(C)C)cc3)c(C)o2)ccc1O | 170 to 173
CC(C)[C@H](S)C(=O)NC(C)(C)C(=O)N[C@@H](Cc1ccc(O)cc1)C(=O)O | 180 to 181
N#Cc1cccc(Oc2ncccc2C(=O)NCc2ccc(-c3cccc(C(=O)O)c3)cc2F)c1 | 200 to 202
Cc1ncc2n1-c1ccc(Cl)cc1C(c1ccccc1F)N(C)C2 (stereo not drawn) | 156 to 158
CCCCOc1c(-c2ccnc3ccc(C(C)=O)cc23)cc(C(C)C)cc1C(C)C | 133
CCOP1(=O)OCC(C)(C)c2cc(OS(C)(=O)=O)ccc2O1 (stereo not drawn) | 113 to 115

Compound | melting point [°C]
C(=C\c1cc(/C=C/c2ccccc2-c2cccnc2)[nH]n1)/c1ccc2cc[nH]c2c1 | 248 to 255
CC(C)=CCNC(=O)N1CC(Oc2cccc(C(F)(F)F)c2)C1 | 143 to 144
CCOC(=O)CN(CC(=O)OCC)C(=O)C(CCC(=O)O)CS(=O)(=O)c1ccc2ccccc2c1 (stereo not drawn) | 108 to 111
OC1CC(c2ccc(-c3ccc(OCc4ccc(Br)cc4)cc3)cc2)Cc2ccccc21 (stereo not drawn) | 178
COc1ccc(Cc2sccc2OC2OC(COC(C)=O)C(OC(C)=O)C(OC(C)=O)C2OC(C)=O)cc1 (stereo not drawn) | 116 to 118
CC(CCC(=O)O)(c1ccc(OCc2ccc3ccccc3c2)cc1)c1ccc(OCc2ccc3ccccc3n2)cc1 (stereo not drawn) | 64 to 68
Cc1nccn1-c1nc(-c2ccc(Cl)cc2)c(CCCOc2ccccc2CCCO)o1 | 119 to 120
COC(=O)C(O)=CC(=O)N(Cc1ccc(F)cc1)Cc1ccc(F)cc1 | 118 to 120
CC1C(=O)N(c2ccc(F)cc2)C(=S)N1c1ccc(Oc2ccccc2)cc1 (stereo not drawn) | 150
CC(C)Oc1cccc(C=C(C=O)C(C=O)=Cc2cccc(OC(C)C)c2)c1 | 116 to 117
COc1ccc(C(=O)Nc2ccc(C(C)=O)cc2)cc1 | 222 to 223
NN(Cc1ccccc1)C(=S)Nc1ccccc1 | 121 to 123
CCCCCCCCCCCN=C=O | 109 to 110
Cc1cccc(C)c1C(c1cccc2ccccc12)C(C#N)C(=O)OC(C)(C)C (stereo not drawn) | 124 to 128
NC(=NO)c1ccc(C(F)(F)F)cn1 | 130 to 133
CCCCCCCCCCCCCC(=O)NN | 107 to 111
N#Cc1ccc(OCCCCN2C(=O)c3ccccc3C2=O)cc1 | 129 to 130

Now from value to compound:

melting point [°C] | Compound
76 to 78 | CCn1cc(-c2cc(-c3nc(C(C)C)[nH]c3-c3cccc(C)n3)ccc2F)cn1
82 | CC(N)=CC(=O)c1cccnc1
226 to 227 | O=C(O)c1cn(C2CC2)c2cc(Cl)ncc2c1=O
233 to 235 | CN1CC[C@@H](c2c(O)cc(O)c3c(=O)cc(-c4ccccc4I)oc23)[C@@H]1CO
122 to 123 | CN1CCN(c2cncc(Cl)n2)CC1=O
167 to 168 | Cc1nc(-n2cnn(CC3CC3)c2=O)sc1C(=O)NCc1cc[nH]n1
269 | O=C(O)c1ccc(N2C(=O)C3C4C=CC(CC4)C3C2=O)cc1 (stereo not drawn)
82 to 83 | COC(=O)C=C1NC(Cc2ccccc2)COC1=O (stereo not drawn)
152 to 153 | CC(C)(C)[Si](C)(C)OC1CCN(S(=O)(=O)c2ccc(N3CCCCC3)cc2)C1=S (stereo not drawn)
125 to 126 | CCNc1nc(Nc2ccccc2)ncc1C=CC(=O)OCC
164 to 165 | CC1=CC(=O)C(O)=CC1=CC=Cc1ccccc1
294 to 300 | N#Cc1ccc2nc[nH]c(=O)c2c1
172 | Cc1cc(O)nc(-c2cccc(-c3ccccc3)n2)n1
165 | CCOc1c(CC)ccnc1C(=O)c1[nH]c2cc(Cl)ccc2c1CC(=O)O
217 to 220 | CCCC(C)NC1=NS(=O)(=O)c2cc(Cl)c(Cl)cc2N1 (stereo not drawn)
205 to 207 | OC1CCN(Cc2nc(-c3ccc4c(c3)Nc3ccccc3S4)cs2)CC1
110 to 115 | CCCN1C(=O)N2C[C@@H](Cc3ccccc3)N=C2c2[nH]c(C3(O)CCCC3)nc21
166 to 168 | O=C(O)C(CSc1ncccn1)CS(=O)(=O)c1ccc(-c2ccc(Cl)cc2)cc1 (stereo not drawn)
182 to 184 | CCCc1nn(C)c2c(=O)n(CCNc3ccc(C(C)=O)cc3)c(-c3ccc(OC)c(OC)c3)nc12
190 to 192 | O=C(c1ccc(F)cc1)C1CCN(CCCCn2c(=O)[nH]c3cscc3c2=O)CC1

melting point [°C] | Compound
219 to 220 | O=C(c1ccccc1)N1CCNc2ncc(-c3cccnc3)cc21
45.1 to 46.5 | CCc1ccc(S(=O)(=O)O)cc1
78 to 79 | CN1NC=CC1c1ccc(C(=O)N2Cc3cccn3Cc3ccccc32)c(Cl)c1 (stereo not drawn)
92 | Cc1csc2ccc3c(c4c(n3CCCN(C)C)CCNC4)c12
112 to 113 | CCCCCCN1c2ccccc2NC(=O)c2cscc21
128 | NC(=O)C1CN(Cc2ccccc2)CC1O (stereo not drawn)
164 to 167 | CN1C(=O)CN2CCNC2(c2ccccc2)c2cc(Cl)ccc21 (stereo not drawn)
156 to 158 | Cc1cn2cc(Cl)cc(Cl)c2n1
250 to 252 | CCOC(=O)c1nnc2ccc(C(C)=O)cc2c1O
220 to 230 | CCC(O)c1c(C)nc2ccccc2c1N (stereo not drawn)
118 to 122 | CC(C)c1cccc(C(C)C)c1NC(=O)[C@H](C)N
87 to 89 | CCCCc1cccc(-c2cn(C)cc(-c3ccccc3)c2=O)c1
148 to 150 | CC(=O)Oc1cccc(-c2nc(=O)n(C(C)C)c3cc(C)ccc23)c1
305 to 307 | CCn1c(=O)c2[nH]c(-c3ccc(S(=O)(=O)N4CCN(C)CC4)cc3)nc2n(CC)c1=O
134 to 135 | Cc1cc(Nc2ccnc(Nc3ccc(S(=O)(=O)N(CCN)C4CCNCC4)cc3)n2)ccc1F
229 to 231 | N#Cc1cnc2c(oc3ccccc32)c1Cl
95 | CCCc1ncc(CC(=O)O)s1
94 to 95 | Cc1cc(C(=S)Cl)c(Cl)cc1Cl
210 to 211 | CC1(C)CCc2c(N3CCOCC3)nc3sc4c(NCc5ccco5)ncnc4c3c2C1
